Columns and labels:
[1] = tested on: granulation tissue; experiment: Inhibitory effect on proliferation of granulation tissue (fertile egg method); type: in vivo, Babcock strain chickens (fertile eggs); settings: for inhibitory effect on proliferation of granulation tissue (in words): fertile egg method
Method: The anti-inflammatory activity was tested by the inhibitory effect on proliferation of granulation tissue which is one of the tests for determining anti-inflammatory activity as follows:
Fertile eggs of Babcock strain chickens were incubated at 38° C. for 9 days. The shell and shell membrane were then removed according to the method of D'arcy et al (cf. D'arcy, P. F. et al, Brit. J. Pharmac. Chemother., 29, 378 (1967). A sterile filter paper disc (diameter: 9 mm) was implanted on the chorio-allantoic membrane and the opening in the shell was sealed with cellophane tape. The eggs were then reincubated for 4 days and at the end of this period, the filter paper disc with granulation tissue was dissected from the chorio-allantoic membrane and then dried at 60° C. for 12 hours. In order to assess the actual amount of granulation tissue present, the weight of filter paper disc which was used in this experiment was subtracted from the total weight of the disc plus granulation tissue.
The test compound was dissolved in an organic solvent (acetone) and 20 μl of the solution was applied on the each disc. The disc was dried and then used in this test. The mean weight of the granulation tissue in each group was compared with that of the control group which was treated with a vehicle alone.
Clavulone-1, clavulone-2, clavulone-3, clavulone-4 and clavulone-5 were used as the test compounds.

[2] = tested on: leukemia L-1210 cells; experiment: Inhibitory activity on proliferation of leukemia L-1210 cells; type: cell-based, mice; settings: Mus musculus, L1210, 96 h, 4 days, read-out: Growth Rate (%) (viable cells, control = 100); for activity at 0.1 µg/mL: 0.1 μg/ml; for activity at 0.4 µg/mL: 0.4 μg/ml; for activity at 1 µg/mL: 1.0 μg/ml; for activity at 0.2 µg/mL: 0.2 μg/ml
Method: (§1) Moreover, the anti-tumor activities of the clavulone derivatives (I) were tested by the inhibitory activity on propagation of leukemia L-1210 cells, DBA/MC fibrosarcoma cells, and B-16 melanoma cells in mice and also apothanasia effect of mice implanted with leukemia P388 cells and Ehrlich carcinoma cells as in the following experiments.
The test compounds (clavulone-1, -2 and -3) were each dissolved in ethanol and diluted with a medium (RPMI-1640) in a prescribed concentration. Said RPMI-1640 medium contained 10% by weight of fetal calf serum.
Leukemia L-1210 cells (cell concentration: 1×10^5 cells/ml) were inoculated in the RPMI-1640 medium containing the test compound (0.1 to 4.0 μg/ml) and cultured under the conditions of 5% CO2 in air, saturated humidity and at 37° C. for 4 days.
Immediately after the cultivation, the L-1210 cells were stained with trypan blue. Number of viable cells (i.e. cells which were not stained with trypan blue) was counted, and the number of viable cells was compared with that in the control group (no drug was added). The results are shown in Table 2, wherein the number of viable cells in the control group was counted as 100.

[3] = tested on: DBA/MC fibrosarcoma cells; experiment: Inhibitory activity on proliferation of DBA/MC fibrosarcoma cells; type: cell-based, mice; settings: Mus musculus, 48 hours, read-out: Inhibitory Rate (%); for inhibition at 3 µg/mL: 3.0 μg/ml; for inhibition at 20 µg/mL: 20.0 μg/ml; for inhibition at 30 µg/mL: 30.0 μg/ml
Method: as §1
The test compounds (clavulone derivatives) were each dissolved in ethanol and diluted with a phosphate-buffer physiological saline solution and further diluted with an eagle's MEM medium in a prescribed concentration. Said eagle's MEM medium contained 20% by weight of fetal calf serum and 0.4% by weight of lactalubumin hydrolysates.
DBA/MC Fibrosarcoma cells (cell concentration: 2.5×10^4 cells/ml) were floated on the eagle's MEM medium and cultured under the conditions of 5% CO2 in air, saturated humidity and at 37° C. for 24 hours. Thereafter, the medium was replaced with the above test compound-containing medium and then it was cultured under the same conditions for 48 hours.
Immediately after the cultivation, the DBA/MC cells were fised with methanol and stained with Giemsa solution. The stained cells were counted with a microscope, and the number of stained cells was compared with that of the control group (no test compound was added). The inhibitory rate was calculated by the following equation: [formula]

[4] = tested on: Ehrlich carcinoma cells; experiment: Anti-tumor effect in mice implanted with Ehrlich carcinoma cells; type: in vivo, female ICR strain mice; settings: for MST / Survivors on 60th day/number of mice in one group / I.L.S. (%): 1st-4th day; for I.L.S. (%): 25 or more = effective
Method: Six or twelve female ICR strain mice (6 weeks old, weighing 22.2-26.8 g) were used.
The test drug was prepared by mixing clavulone-2 with gum arabic, suspending the mixture in a sterilized saline solution in a concentration of clavulone-2 of 10, 18 or 25 mg/10 ml.
Ehrlich carcinoma cells were serially passaged in an ascites form in ICR strain mice. The tumor cells were harvested from ICR strain mice on 6th day after inoculation, washed with and resuspended in Hank's solution in a concentration of 5×10^5 cells/ml.
Tumor cells (1×10^5 cells/0.2 ml/mouse) were implanted intraperitoneally. The test drug (clavulone-2, 10 ml/kg) was injected intraperitoneally once a day from first to 4th day after the implantation of tumor cells. Control mice were injected with a saline solution in the same as above.
The anti-tumor effect of clavulone-2 was evaluated by means of I.L.S. (%) which was calculated by the following equation: [formula]

[5] = tested on: B-16 melanoma cells; experiment: Anti-tumor effect on B-16 melanoma in mice; type: in vivo, C57BL/6 female mice; settings: local injection
Method: C57BL/6 female mice (12 weeks old, weighing 18.4-21.6 g, each group: 10 animals) were used.
The test drug was prepared by dissolving clavulone-2 in ethanol and diluting with a saline solution in a concentration of clavulone-2 of 100 μg/ml.
B-16 melanoma cells were serially passaged in subcutaneously implanted form in C57BL/6 mice. The tumor cells were dissected out from C57BL/6 mice on 16th day after implantation, weighed, and mixed homogeneously with Hank's solution in a ratio of 1:9 by weight.
Tumor cells (2×10^5 cells/0.05 ml/mouse) were implanted subcutaneously. The test drug (clavulone-2, 10 μg/0.1 ml) was injected locally into tumor cell-implanted site for three weeks except the weekend. Control mice were injected with a vehicle (1% ethanol in saline solution) in the same as above.
After 21 days from the implantation of tumor cells, mice were killed by chloroform anethesia, and the tumor masses were removed and weighed. The anti-tumor effect of clavulone-2 was evaluated by means of growth inhibition rate calculated by the following equation:
Growth inhibition rate (%)=(1-T/C)×100
T: Mean tumor weight of mice treated with the test compound-containing solution
C: Mean tumor weight of mice treated with the vehicle solution.

[6] = tested on: leukemia P388 cells; experiment: Apothanasia effect in mice implanted with leukemia P388 cells; type: in vivo, BDFI male mice; settings: intraperitoneal, once a day, 1st-4th and 7th-11th day
Method: Clavulone-2 was mixed with gum arabic in the ratio of 1.6:1 by weight and was mixed with a physiological saline solution in a prescribed concentration to give a test compound solution.
BDFI male mice (5 weeks old, weighing 22.0-24.4 g, 6 animals per group) were used.
Each mice was inoculated intraperitoneally with leukemia P388 cells (cell concentration: 1×10^7 cells/ml) in 0.2 ml Hank's solution. A solution of a test compound in a physiological saline solution was injected intraperitoneally once a day from the first day to 4th day and also from 7th day to 11th day after inoculation of the tumor cells. The control group was given with a vehicle (a physiological saline solution) alone in the same way.
The apothanasia effect of the test compound was estimated by comparing mean survival time between the medicated group and the control group by the following equation: [formula]

[7] = 10 μg/0.1 ml, three weeks except weekend, 21 days

Structure (SMILES) | Inhibitory rate (%) ([1]; Dose 30, on filter paper disc) | Inhibitory rate (%) ([1]; Dose 100, on filter paper disc) | inhibitory effect on proliferation of granulation tissue (in words) [1] | activity at 0.1 µg/mL [2] | activity at 0.4 µg/mL [2] | activity at 1 µg/mL [2] | inhibition at 3 µg/mL [3] | inhibition at 20 µg/mL [3] | other results
CCCCC/C=C\CC1(OC(C)=O)C=CC(=O)/C1=C/C=C\C(CCC(=O)OC)OC(C)=O (centres unmarked) [Clavulone-1] | 15.8% | 30.4% | showed the inhibitory effect on proliferation of granulation tissue | 100% | 24.7% | 0% | 50% | 100% | –
CCCCC/C=C\CC1(OC(C)=O)C=CC(=O)/C1=C/C=C/C(CCC(=O)OC)OC(C)=O (centres unmarked) [Clavulone-2] | 10.1% | 21.0% | showed the inhibitory effect on proliferation of granulation tissue | 61.5% | 16.9% | 0% | 0% | 100% | MST ([4]; 10 mg/kg, intraperitoneal): 26.5 days; Survivors on 60th day/number of mice in one group ([4]; 10 mg/kg, intraperitoneal): 2/6; I.L.S. (%) ([4]; 10 mg/kg, intraperitoneal): 23%; animals survived 60 days after implantation of tumor cells ([4]; 18 mg/10 ml/kg): 50%; MST ([4]; 18 mg/kg, intraperitoneal): 50.0 days; Survivors on 60th day/number of mice in one group ([4]; 18 mg/kg, intraperitoneal): 3/6; I.L.S. (%) ([4]; 18 mg/kg, intraperitoneal): 133%; activity against Ehrlich ascites tumor in vivo (in words) ([4]; intraperitoneal): high activity against Ehrlich ascites tumor in vivo; Growth inhibition rate (%) [5, 7]: 73%; Mean tumor weight (g; ± S.E.) [5, 7]: 0.882 ± 0.388 g; number of survivors 21th day after implantation of tumor cells ([5]; 10 μg/0.1 ml, group of 10 animals): 10; activity at 0.2 µg/mL [2]: 55.4%; Apothanasia effect (%) ([6]; 4.0 mg/kg): 130%; Apothanasia effect (%) ([6]; 8.0 mg/kg): 130%
CCCCC/C=C\CC1(OC(C)=O)C=CC(=O)/C1=C\C=C\C(CCC(=O)OC)OC(C)=O (centres unmarked) [Clavulone-3] | 26.1% | 31.0% | showed the inhibitory effect on proliferation of granulation tissue | 87.5% | 17.2% | 0% | 0% | 100% | activity at 0.2 µg/mL [2]: 52%
COC(=O)CCC(/C=C/C=C1/C(=O)C=CC1(C/C=C\CCCCCOC(C)=O)OC(C)=O)OC(C)=O (centres unmarked) [Clavulone-4] | 18.3% | 34.2% | showed the inhibitory effect on proliferation of granulation tissue | – | – | – | 0% | 100% | –
COC(=O)CCC(/C=C/C=C1\C(=O)C=CC1(C/C=C\CCCCCOC(C)=O)OC(C)=O)OC(C)=O (centres unmarked) [Clavulone-5] | 18.2% | 31.6% | showed the inhibitory effect on proliferation of granulation tissue | – | – | – | 0% | 100% | –
COC(=O)CCC(/C=C\C=C1\C(=O)C=CC1(C/C=C\CCCCCOC(C)=O)OC(C)=O)OC(C)=O (centres unmarked) [Clavulone-6] | – | – | – | – | – | – | 90% | 100% | Growth inhibition rate (%) [5, 7]: 73%; growth of B-16 melanoma in mice (in words) ([5]; 21 days): regressed significantly; inhibition at 30 µg/mL [3]: 100%
CCCCCCCCC1CCC(=O)C1CCCC(CCC(=O)OC)OC(C)=O (centres unmarked) [Clavulone-13] | – | – | – | – | – | – | 0% | – | inhibition at 30 µg/mL [3]: 100%
